Reference: PubChem BioAssay AID493144 (Sanford-Burnham Center for Chemical Genomics, 2011)
pIC50: −log10 of the molar value. Calls of active or inactive are those of the source. No rule for the calls is given here.

target: Intestinal-type alkaline phosphatase (Homo sapiens) (UniProt P09923); experiment: inhibition of human intestinal phosphatase enzyme – biochemical, human enzyme for mouse series, mouse IAP inhibitor project, SAR follow-up (AID 493144); settings: purified human intestinal alkaline phosphatase, enzymatic activity
Sequence (P09923 whole entry, looked up): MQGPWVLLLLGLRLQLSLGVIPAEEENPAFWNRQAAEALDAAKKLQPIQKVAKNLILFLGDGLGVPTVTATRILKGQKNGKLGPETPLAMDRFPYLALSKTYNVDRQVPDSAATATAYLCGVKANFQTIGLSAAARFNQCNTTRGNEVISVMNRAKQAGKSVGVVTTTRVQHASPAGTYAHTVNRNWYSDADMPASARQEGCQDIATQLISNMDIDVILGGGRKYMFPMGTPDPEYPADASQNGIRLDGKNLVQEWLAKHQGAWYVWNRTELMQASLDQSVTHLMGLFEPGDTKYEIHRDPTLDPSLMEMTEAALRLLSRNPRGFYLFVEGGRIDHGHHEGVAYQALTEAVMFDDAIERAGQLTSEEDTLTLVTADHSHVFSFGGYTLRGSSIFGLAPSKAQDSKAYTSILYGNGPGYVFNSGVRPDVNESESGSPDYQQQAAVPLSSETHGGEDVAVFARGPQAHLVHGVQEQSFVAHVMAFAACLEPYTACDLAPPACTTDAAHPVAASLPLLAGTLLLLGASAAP

| SMILES | IC50 | pIC50 |
| --- | --- | --- |
| Cc1ccc(NC(=S)NCCC(c2ccccc2)c2ccccc2)cc1 | > 100 µM (inactive) |  |
| COC(=O)c1cc(NC(=S)NCCC(c2ccccc2)c2ccccc2)cc(C(=O)OC)c1 | > 100 µM (inactive) |  |
| CCN1CCN(S(=O)(=O)c2ccc3[nH]c(=O)oc3c2)CC1 | > 100 µM (inactive) |  |
| S=C(NCCC(c1ccccc1)c1ccccc1)Nc1ccc(Cl)c(Cl)c1 | > 100 µM (inactive) |  |
| CC(C)N1CCC(=NNC(=O)c2cc(O)c(O)c(O)c2)CC1 | > 100 µM (inactive) |  |
| Cc1cc(C)cc(NC(=S)NCCC(c2ccccc2)c2ccccc2)c1 | > 100 µM (inactive) |  |
| COc1ccc(Cl)cc1Nc1nc(-c2ccc(O)c(O)c2)cs1 | > 100 µM (inactive) |  |
| S=C(NCCC(c1ccccc1)c1ccccc1)Nc1ccc(Cl)cc1 | > 100 µM (inactive) |  |
| O=C(CN1C(=O)/C(=C/c2ccco2)SC1=S)Nc1ccc(C(=O)O)cc1 | > 100 µM (inactive) |  |
| S=C(NCCC(c1ccccc1)c1ccccc1)Nc1ccc(Nc2ccccc2)cc1 | > 100 µM (inactive) |  |
| CCn1c(SCC(=O)c2ccc(O)c(O)c2)nnc1-c1ccccc1OC |  | 4.85 |
| CC(C)c1ccccc1NC(=S)NCCC(c1ccccc1)c1ccccc1 | > 100 µM (inactive) |  |
| Cc1c(Cl)cccc1Nc1nc(-c2ccc(O)c(O)c2)cs1 | > 100 µM (inactive) |  |
| O=[N+]([O-])c1ccc(NC(=S)NCCC(c2ccccc2)c2ccccc2)cc1 | > 100 µM (inactive) |  |
| CCOC(=O)c1ccc(NC(=S)NCCC(c2ccccc2)c2ccccc2)cc1 | > 100 µM (inactive) |  |
| COc1cc([N+](=O)[O-])ccc1NC(=S)NCCC(c1ccccc1)c1ccccc1 | > 100 µM (inactive) |  |
| Cc1cc(=O)oc2cc(NC(=S)NCCC(c3ccccc3)c3ccccc3)ccc12 | > 100 µM (inactive) |  |
| Fc1ccccc1NC(=S)NCCC(c1ccccc1)c1ccccc1 | > 100 µM (inactive) |  |
| NS(=O)(=O)c1ccc(NC(=S)NCCC(c2ccccc2)c2ccccc2)cc1 | > 100 µM (inactive) |  |
| Cc1cc(NC(=O)CCNS(=O)(=O)c2ccc3[nH]c(=O)oc3c2)ccc1Br | > 100 µM (inactive) |  |
| Cc1c(Cl)cccc1NC(=S)NCCC(c1ccccc1)c1ccccc1 | > 100 µM (inactive) |  |
| Cc1ccc(NC(=O)CCNS(=O)(=O)c2ccc3[nH]c(=O)oc3c2)cc1C | > 100 µM (inactive) |  |

| SMILES | IC50 | pIC50 |
| --- | --- | --- |
| O=C(CN1C(=O)/C(=C/c2ccco2)SC1=S)Nc1cccc(C(=O)O)c1 | > 100 µM (inactive) |  |
| O=S(=O)(Nc1ncccn1)c1ccc(NC(=S)NCCC(c2ccccc2)c2ccccc2)cc1 | > 100 µM (inactive) |  |
| S=C(NCCC(c1ccccc1)c1ccccc1)Nc1ccccc1 | > 100 µM (inactive) |  |
| COc1ccc(Cl)cc1NC(=S)NCCC(c1ccccc1)c1ccccc1 | > 100 µM (inactive) |  |
| Cc1ccc(C)c(NC(=S)NCCC(c2ccccc2)c2ccccc2)c1 | > 100 µM (inactive) |  |
| CCc1ccccc1Nc1nc(-c2ccc(O)c(O)c2)cs1 |  | 4.67 |
| CN1CCC(=NNC(=O)c2cc(O)c(O)c(O)c2)CC1 | > 100 µM (inactive) |  |
| Cc1cc(Cl)ccc1NC(=S)NCCC(c1ccccc1)c1ccccc1 | > 100 µM (inactive) |  |
| Oc1ccc(-c2csc(Nc3cccc4ccccc34)n2)cc1O |  | 4.36 |
| COc1ccc(C(=O)CSc2n[nH]c(-c3ccccc3)n2)cc1OC | > 100 µM (inactive) |  |
| Cc1cccc(NC(=S)NCCC(c2ccccc2)c2ccccc2)c1C | > 100 µM (inactive) |  |
| S=C(NCCC(c1ccccc1)c1ccccc1)Nc1ccc(Cl)cc1Cl | > 100 µM (inactive) |  |
| FC(F)(F)c1cccc(NC(=S)NCCC(c2ccccc2)c2ccccc2)c1 | > 100 µM (inactive) |  |
| CC1(c2ccccc2)CC(C)(C)N(C(=S)Nc2ccccc2)c2ccccc21 (stereo not drawn) | > 100 µM (inactive) |  |
| Cc1ccc(NC(=S)NCCC(c2ccccc2)c2ccccc2)cc1C | > 100 µM (inactive) |  |
| CN(C)S(=O)(=O)c1cccc(NC(=S)NCCC(c2ccccc2)c2ccccc2)c1 | > 100 µM (inactive) |  |
| O=C(CN1C(=O)/C(=C\c2ccco2)SC1=S)Nc1ccccc1C(=O)O | > 100 µM (inactive) |  |
| COc1cc(NC(=S)NCCC(c2ccccc2)c2ccccc2)cc(OC)c1 | > 100 µM (inactive) |  |
| Fc1ccc(NC(=S)NCCC(c2ccccc2)c2ccccc2)cc1Cl | > 100 µM (inactive) |  |
| COc1ccc(NC(=S)NCCC(c2ccccc2)c2ccccc2)cc1 | > 100 µM (inactive) |  |
| COc1cccc(NC(=S)NCCC(c2ccccc2)c2ccccc2)c1 | > 100 µM (inactive) |  |

The remaining lines, values ahead:

| IC50 | pIC50 | SMILES |
| --- | --- | --- |
| > 100 µM (inactive) |  | CCCn1ncc(CN2CCC(C(=O)Nc3cccc(-c4cccc(F)c4)c3)CC2)c1C |
| > 100 µM (inactive) |  | CCn1cc(CN2CCC(C(=O)Nc3cccc(-c4cccc(F)c4)c3)CC2)cn1 |
| > 100 µM (inactive) |  | CC(C)n1cc(CN2CCC(C(=O)Nc3cccc(-c4cccc(Cl)c4)c3)CC2)cn1 |
| > 100 µM (inactive) |  | CCn1cc(CN2CCC(C(=O)Nc3cccc(-c4cccc(OC)c4)c3)CC2)c(C)n1 |
| > 100 µM (inactive) |  | C=CCn1cc(CN2CCC(C(=O)Nc3cccc(-c4cccc(Cl)c4)c3)CC2)c(C)n1 |
| > 100 µM (inactive) |  | CC(C)n1cc(CN2CCC(C(=O)Nc3cccc(-c4cccc(F)c4)c3)CC2)cn1 |
| > 100 µM (inactive) |  | O=C(Nc1cccc(-c2cccc(Cl)c2)c1)C1CCN(Cc2ccc(CO)o2)CC1 |
| > 100 µM (inactive) |  | CCn1cc(CN2CCC(C(=O)Nc3cccc(-c4cccc(OC)c4)c3)CC2)cn1 |
| > 100 µM (inactive) |  | Cc1nn(C(C)C)c(C)c1CN1CCC(C(=O)Nc2cccc(-c3cccc(F)c3)c2)CC1 |
| > 100 µM (inactive) |  | Cn1cc(CN2CCC(C(=O)Nc3cccc(-c4cccc(F)c4)c3)CC2)cn1 |
| > 100 µM (inactive) |  | Cc1ccc(CN2CCC(C(=O)Nc3cccc(-c4cccc(F)c4)c3)CC2)o1 |
| > 100 µM (inactive) |  | O=C(Nc1cccc(-c2cccc(F)c2)c1)C1CCN(Cc2ccc(CO)o2)CC1 |
| > 100 µM (inactive) |  | C=CCn1cc(CN2CCC(C(=O)Nc3cccc(-c4cccc(F)c4)c3)CC2)c(C)n1 |
| > 100 µM (inactive) |  | O=C(Nc1cccc(-c2cccc(Cl)c2)c1)C1CCN(C2CCC2)CC1 |
| > 100 µM (inactive) |  | COc1cccc(-c2cccc(NC(=O)C3CCN(Cc4ccc(C)o4)CC3)c2)c1 |
| > 100 µM (inactive) |  | Cn1cc(CN2CCC(C(=O)Nc3cccc(-c4cccc(Cl)c4)c3)CC2)cn1 |
| > 100 µM (inactive) |  | CCn1nc(C)c(CN2CCC(C(=O)Nc3cccc(-c4cccc(F)c4)c3)CC2)c1C |
| > 100 µM (inactive) |  | COc1cccc(-c2cccc(NC(=O)C3CCN(Cc4ccc(CO)o4)CC3)c2)c1 |
| > 100 µM (inactive) |  | Cc1nn(C)c(Cl)c1CN1CCC(C(=O)Nc2cccc(-c3cccc(F)c3)c2)CC1 |
| > 100 µM (inactive) |  | Cc1c(CN2CCC(C(=O)Nc3cccc(-c4cccc(Cl)c4)c3)CC2)cnn1C |
| > 100 µM (inactive) |  | CCn1nc(C)c(CN2CCC(C(=O)Nc3cccc(-c4cccc(Cl)c4)c3)CC2)c1C |
| > 100 µM (inactive) |  | S=C(NCCC(c1ccccc1)c1ccccc1)Nc1cccc(Cl)c1 |
| > 100 µM (inactive) |  | CCn1ncc(CN2CCC(C(=O)Nc3cccc(-c4cccc(F)c4)c3)CC2)c1C |
| > 100 µM (inactive) |  | COCc1ccc(CN2CCC(C(=O)Nc3cccc(-c4cccc(Cl)c4)c3)CC2)o1 |
| > 100 µM (inactive) |  | CCn1cc(CN2CCC(C(=O)Nc3cccc(-c4cccc(Cl)c4)c3)CC2)cn1 |
